Reference: ChEMBL document CHEMBL1157712, “Hit to lead account of the discovery of bisbenzamide and related ureidobenzamide inhibitors of Rho kinase” (J Med Chem, 2010)

Key:
[1] = molecular target: Serine/threonine-protein kinase Nek6 (Homo sapiens) (UniProt Q9HC98); assay: Inhibition of NEK6 at 3 uM relative to control; values are per cent of control
[2] = molecular target: Serine/threonine-protein kinase Nek7 (Homo sapiens) (UniProt Q8TDX7); assay: Inhibition of NEK7 at 3 uM relative to control; values are per cent of control
Sequence of Serine/threonine-protein kinase Nek7 (Homo sapiens) (Q8TDX7 whole entry, looked up): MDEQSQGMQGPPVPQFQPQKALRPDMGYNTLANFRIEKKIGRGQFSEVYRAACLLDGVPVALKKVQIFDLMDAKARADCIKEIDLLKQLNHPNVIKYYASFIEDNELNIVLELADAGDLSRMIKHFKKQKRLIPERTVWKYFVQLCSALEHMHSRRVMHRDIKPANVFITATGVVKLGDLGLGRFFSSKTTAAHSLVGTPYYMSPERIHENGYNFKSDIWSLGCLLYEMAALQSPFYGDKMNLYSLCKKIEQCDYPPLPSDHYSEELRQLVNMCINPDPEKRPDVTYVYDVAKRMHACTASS

[3] = molecular target: Serine/threonine-protein kinase 3 (Homo sapiens) (UniProt Q13188); assay: Inhibition of MST2 at 3 uM relative to control; values are per cent of control
Sequence of Serine/threonine-protein kinase 3 (Homo sapiens) (Q13188 whole entry): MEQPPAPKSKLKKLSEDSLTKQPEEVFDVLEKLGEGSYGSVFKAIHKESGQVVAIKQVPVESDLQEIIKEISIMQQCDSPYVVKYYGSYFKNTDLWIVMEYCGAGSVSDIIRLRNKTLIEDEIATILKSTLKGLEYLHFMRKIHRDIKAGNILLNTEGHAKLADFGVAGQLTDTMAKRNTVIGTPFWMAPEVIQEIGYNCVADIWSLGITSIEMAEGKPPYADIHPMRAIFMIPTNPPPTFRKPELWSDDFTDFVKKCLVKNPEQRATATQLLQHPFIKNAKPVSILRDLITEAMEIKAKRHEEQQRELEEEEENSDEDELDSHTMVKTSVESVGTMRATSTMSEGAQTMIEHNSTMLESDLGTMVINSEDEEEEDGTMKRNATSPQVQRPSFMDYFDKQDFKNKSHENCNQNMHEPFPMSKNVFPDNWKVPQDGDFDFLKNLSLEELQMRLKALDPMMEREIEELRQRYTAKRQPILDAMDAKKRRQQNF

[4] = molecular target: MAP/microtubule affinity-regulating kinase 3 (Homo sapiens) (UniProt P27448); assay: Inhibition of MARK3 at 3 uM relative to control; values are per cent of control
Sequence of MAP/microtubule affinity-regulating kinase 3 (Homo sapiens) (P27448 whole entry, looked up): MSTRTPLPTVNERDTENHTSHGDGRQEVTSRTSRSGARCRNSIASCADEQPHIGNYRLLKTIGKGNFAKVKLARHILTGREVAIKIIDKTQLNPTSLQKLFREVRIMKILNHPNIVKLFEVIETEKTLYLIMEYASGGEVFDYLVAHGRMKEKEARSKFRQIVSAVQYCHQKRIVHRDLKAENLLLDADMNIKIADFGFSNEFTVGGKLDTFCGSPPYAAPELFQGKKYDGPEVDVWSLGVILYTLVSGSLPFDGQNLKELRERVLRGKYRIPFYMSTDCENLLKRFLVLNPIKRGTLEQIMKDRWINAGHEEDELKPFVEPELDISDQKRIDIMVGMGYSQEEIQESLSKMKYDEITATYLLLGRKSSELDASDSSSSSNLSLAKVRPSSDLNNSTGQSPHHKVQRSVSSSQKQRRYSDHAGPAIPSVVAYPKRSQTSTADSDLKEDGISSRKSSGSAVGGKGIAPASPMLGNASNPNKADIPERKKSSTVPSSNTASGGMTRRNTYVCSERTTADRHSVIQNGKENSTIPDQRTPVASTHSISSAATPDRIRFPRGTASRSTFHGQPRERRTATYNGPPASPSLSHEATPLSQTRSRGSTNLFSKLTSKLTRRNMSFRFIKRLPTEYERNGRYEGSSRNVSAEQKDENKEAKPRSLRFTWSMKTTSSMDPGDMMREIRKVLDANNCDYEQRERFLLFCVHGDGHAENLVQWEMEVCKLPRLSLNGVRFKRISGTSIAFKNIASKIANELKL

[5] = molecular target: MAP kinase-activated protein kinase 3 (Homo sapiens) (UniProt Q16644); assay: Inhibition of MAPKAPK3 at 3 uM relative to control; values are per cent of control
[6] = molecular target: Mitogen-activated protein kinase 1 (Homo sapiens) (UniProt P28482); assay: Inhibition of MAPK2 at 3 uM relative to control; values are per cent of control
Sequence of Mitogen-activated protein kinase 1 (Homo sapiens) (P28482 whole entry): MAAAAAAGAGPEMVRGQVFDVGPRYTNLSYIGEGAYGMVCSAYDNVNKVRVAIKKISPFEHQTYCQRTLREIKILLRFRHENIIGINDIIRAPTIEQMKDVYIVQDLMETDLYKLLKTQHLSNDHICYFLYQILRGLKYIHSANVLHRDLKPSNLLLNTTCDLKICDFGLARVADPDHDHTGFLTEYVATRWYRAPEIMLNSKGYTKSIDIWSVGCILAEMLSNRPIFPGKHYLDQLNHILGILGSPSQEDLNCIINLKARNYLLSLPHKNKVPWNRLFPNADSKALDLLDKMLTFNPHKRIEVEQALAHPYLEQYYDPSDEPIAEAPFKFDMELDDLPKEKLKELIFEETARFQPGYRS

[7] = molecular target: Serine/threonine-protein kinase MRCK beta (Homo sapiens) (UniProt Q9Y5S2); assay: Inhibition of CDC42BPB
[8] = molecular target: Serine/threonine-protein kinase Nek2 (Homo sapiens) (UniProt P51955); assay: Inhibition of NEK2a at 3 uM relative to control; values are per cent of control
Sequence of Serine/threonine-protein kinase Nek2 (Homo sapiens) (P51955 whole entry): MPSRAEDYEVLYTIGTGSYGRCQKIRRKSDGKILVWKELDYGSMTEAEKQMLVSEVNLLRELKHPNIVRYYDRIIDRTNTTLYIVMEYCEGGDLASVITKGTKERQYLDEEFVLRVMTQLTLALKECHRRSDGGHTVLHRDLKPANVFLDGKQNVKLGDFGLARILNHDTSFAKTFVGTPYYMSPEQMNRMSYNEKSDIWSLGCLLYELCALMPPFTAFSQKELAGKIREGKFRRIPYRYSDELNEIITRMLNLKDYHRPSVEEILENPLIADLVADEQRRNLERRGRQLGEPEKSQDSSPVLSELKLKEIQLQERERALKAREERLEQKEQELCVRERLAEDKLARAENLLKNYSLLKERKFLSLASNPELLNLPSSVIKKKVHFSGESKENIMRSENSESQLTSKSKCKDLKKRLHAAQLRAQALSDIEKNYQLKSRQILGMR

[9] = molecular target: Serine/threonine-protein kinase Sgk1 (Homo sapiens) (UniProt O00141); settings: 3 to 6 uM
Description: Inhibition of SGK at 3 to 6 uM relative to control

[10] = molecular target: Serine/threonine-protein kinase 3 (Homo sapiens) (UniProt Q13188); settings: 3 to 6 uM
Description: Inhibition of MST2 at 3 to 6 uM relative to control

[11] = molecular target: Protein kinase C delta type (Homo sapiens, UniProt Q05655); assay: Inhibition of PRKCD
[12] = molecular target: Inhibitor of nuclear factor kappa-B kinase subunit epsilon (Homo sapiens) (UniProt Q14164); settings: 3 to 6 uM
Sequence of Inhibitor of nuclear factor kappa-B kinase subunit epsilon (Homo sapiens) (Q14164 whole entry): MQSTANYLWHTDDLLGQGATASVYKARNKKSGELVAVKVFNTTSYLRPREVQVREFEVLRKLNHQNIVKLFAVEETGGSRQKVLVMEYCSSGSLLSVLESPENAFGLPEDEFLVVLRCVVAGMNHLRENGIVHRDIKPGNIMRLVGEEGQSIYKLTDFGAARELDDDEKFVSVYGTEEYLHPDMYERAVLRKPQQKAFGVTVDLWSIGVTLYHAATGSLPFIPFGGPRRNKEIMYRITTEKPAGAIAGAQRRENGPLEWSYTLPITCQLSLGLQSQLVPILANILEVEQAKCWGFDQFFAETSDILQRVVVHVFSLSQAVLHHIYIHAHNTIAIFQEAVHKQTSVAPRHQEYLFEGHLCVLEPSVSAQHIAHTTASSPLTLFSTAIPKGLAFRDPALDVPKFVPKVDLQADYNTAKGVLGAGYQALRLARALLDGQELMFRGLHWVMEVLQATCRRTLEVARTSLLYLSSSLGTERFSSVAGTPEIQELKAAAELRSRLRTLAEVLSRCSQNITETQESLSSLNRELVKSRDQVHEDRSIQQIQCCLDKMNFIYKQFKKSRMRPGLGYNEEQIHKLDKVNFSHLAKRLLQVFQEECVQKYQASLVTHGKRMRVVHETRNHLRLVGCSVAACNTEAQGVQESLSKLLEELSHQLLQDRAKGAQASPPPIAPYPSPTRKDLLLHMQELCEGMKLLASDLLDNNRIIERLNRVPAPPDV
Description: Inhibition of IKKE at 3 to 6 uM relative to control

Rattus norvegicus = species on record: Rattus norvegicus; assay: Induction of relaxation activity of phenylephrine-induced Sprague-Dawley rat aortic ring contraction; format: functional; settings: Aorta
[13] = molecular target: Mitogen-activated protein kinase 15 (Homo sapiens) (UniProt Q8TD08); settings: 3 to 6 uM
Sequence of Mitogen-activated protein kinase 15 (Homo sapiens) (Q8TD08 whole entry, the tested form may be a part): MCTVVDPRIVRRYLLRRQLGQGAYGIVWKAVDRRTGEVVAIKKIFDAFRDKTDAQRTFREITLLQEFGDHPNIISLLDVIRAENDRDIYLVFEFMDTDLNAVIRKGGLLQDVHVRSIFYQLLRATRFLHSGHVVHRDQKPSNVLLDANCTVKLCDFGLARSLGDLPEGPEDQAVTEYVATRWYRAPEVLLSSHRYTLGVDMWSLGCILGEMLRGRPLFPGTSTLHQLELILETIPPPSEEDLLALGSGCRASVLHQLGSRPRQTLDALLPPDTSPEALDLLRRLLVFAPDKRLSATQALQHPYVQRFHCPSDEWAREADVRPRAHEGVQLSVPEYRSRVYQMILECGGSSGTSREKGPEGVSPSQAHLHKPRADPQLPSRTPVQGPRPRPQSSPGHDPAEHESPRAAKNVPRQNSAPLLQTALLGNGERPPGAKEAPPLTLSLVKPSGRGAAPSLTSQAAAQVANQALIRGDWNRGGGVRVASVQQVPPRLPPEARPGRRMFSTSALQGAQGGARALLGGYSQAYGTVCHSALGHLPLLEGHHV
Description: Inhibition of ERK8 at 3 to 6 uM relative to control

[14] = molecular target: Discoidin domain-containing receptor 2 (Homo sapiens) (UniProt Q16832); settings: 3 to 6 uM
Sequence of Discoidin domain-containing receptor 2 (Homo sapiens) (Q16832 whole entry, the tested form may be a part): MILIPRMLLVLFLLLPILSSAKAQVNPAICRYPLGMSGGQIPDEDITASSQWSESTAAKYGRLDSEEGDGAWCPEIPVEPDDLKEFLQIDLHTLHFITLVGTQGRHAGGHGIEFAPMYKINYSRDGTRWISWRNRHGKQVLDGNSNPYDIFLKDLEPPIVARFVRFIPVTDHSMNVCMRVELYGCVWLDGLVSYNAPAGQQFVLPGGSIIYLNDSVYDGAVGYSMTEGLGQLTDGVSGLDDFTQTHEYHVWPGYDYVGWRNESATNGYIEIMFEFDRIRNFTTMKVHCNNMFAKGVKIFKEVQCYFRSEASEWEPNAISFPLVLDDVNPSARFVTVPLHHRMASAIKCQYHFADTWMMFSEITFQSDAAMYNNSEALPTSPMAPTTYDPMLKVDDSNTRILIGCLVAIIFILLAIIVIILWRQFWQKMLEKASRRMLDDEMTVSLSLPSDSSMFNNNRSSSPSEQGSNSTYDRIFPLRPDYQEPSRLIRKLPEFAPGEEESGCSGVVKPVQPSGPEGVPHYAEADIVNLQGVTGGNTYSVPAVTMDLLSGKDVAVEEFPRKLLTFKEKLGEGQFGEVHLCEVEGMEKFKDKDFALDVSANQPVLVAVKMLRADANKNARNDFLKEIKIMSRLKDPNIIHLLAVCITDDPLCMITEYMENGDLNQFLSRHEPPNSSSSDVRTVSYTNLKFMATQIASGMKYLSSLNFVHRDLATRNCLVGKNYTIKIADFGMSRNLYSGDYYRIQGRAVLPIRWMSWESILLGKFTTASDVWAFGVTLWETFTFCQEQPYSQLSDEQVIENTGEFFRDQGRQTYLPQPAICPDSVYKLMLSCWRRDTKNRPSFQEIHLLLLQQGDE
Description: Inhibition of DDR2 at 3 to 6 uM relative to control

Cytochrome P450 3A4 = Cytochrome P450 3A4 (Homo sapiens, UniProt P08684); assay: Inhibition of human CYP3A4 by LCMS/MS assay; format: ADME
Sequence of Cytochrome P450 3A4 (P08684 whole entry): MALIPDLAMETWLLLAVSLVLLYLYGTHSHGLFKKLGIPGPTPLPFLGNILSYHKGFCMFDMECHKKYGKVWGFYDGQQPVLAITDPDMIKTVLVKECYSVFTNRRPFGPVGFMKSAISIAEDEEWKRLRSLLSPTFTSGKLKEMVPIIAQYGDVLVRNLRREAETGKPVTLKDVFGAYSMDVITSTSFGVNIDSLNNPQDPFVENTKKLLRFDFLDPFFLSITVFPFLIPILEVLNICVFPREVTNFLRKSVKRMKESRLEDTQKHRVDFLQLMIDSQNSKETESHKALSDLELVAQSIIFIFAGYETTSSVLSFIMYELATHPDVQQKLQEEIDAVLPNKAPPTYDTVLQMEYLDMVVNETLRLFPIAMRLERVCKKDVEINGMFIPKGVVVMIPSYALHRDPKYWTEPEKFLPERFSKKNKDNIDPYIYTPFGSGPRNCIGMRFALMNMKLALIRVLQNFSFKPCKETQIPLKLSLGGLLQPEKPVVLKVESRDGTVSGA

[15] = Metabolic stability in human liver microsomes assessed as half life; format: ADME, Microsome
[16] = molecular target: Serine/threonine-protein kinase Nek7 (Homo sapiens) (UniProt Q8TDX7); settings: 3 to 6 uM
Description: Inhibition of NEK7 at 3 to 6 uM relative to control

| residual activity [1] [%] | residual activity [2] [%] | residual activity [3] [%] | residual activity [4] [%] | residual activity [5] [%] | residual activity [6] [%] | IC50 [7] [µM] | residual activity [8] [%] | residual activity [9] [%] | residual activity [10] [%] | IC50 [11] [µM] | residual activity [12] [%] | IC50 (Rattus norvegicus) [µM] | residual activity [14] [%] | IC50 (Cytochrome P450 3A4) [µM] | half-life [15] [h] | residual activity [16] [%] | SMILES | residual activity [13] [%] |
| --- | --- | --- | --- | --- | --- | --- | --- | --- | --- | --- | --- | --- | --- | --- | --- | --- | --- | --- |
| > 50 | > 50 | > 50 | > 50 | > 50 | > 50 | > 5 | > 50 | – | – | – | – | – | – | – | – | – | NC(=O)c1ccc(NC(=O)NCc2cccc(C(=O)Nc3ccc4c(c3)CNCC4)c2)cc1 | – |
| – | – | – | – | – | – | – | – | > 50 | > 50 | > 10 | > 50 | 6.4 | > 50 | > 30 | 2.43 | > 50 | COc1ccc(C(=O)NCc2cccc(C(=O)Nc3ccc4c(c3)CNCC4)c2)cc1OC | > 50 |
